Experiments:
[1] = molecular target: T1, AKT2/PKBβ (Homo sapiens, UniProt P31751, S474D); assay: […]-γ-ATP radiometric kinase assay with purified kinase and Crosstide peptide; assay type: biochemical
T1 construct: ΔPH-PKBβ-S474D

[2] = molecular target: T2, AKT1/PKBα (Homo sapiens, UniProt P31749, S473D); assay: as above; assay type: biochemical
T2 construct: ΔPH-PKBα-S473D
T2 sequence (P31749 118-480 S473D limits assumed): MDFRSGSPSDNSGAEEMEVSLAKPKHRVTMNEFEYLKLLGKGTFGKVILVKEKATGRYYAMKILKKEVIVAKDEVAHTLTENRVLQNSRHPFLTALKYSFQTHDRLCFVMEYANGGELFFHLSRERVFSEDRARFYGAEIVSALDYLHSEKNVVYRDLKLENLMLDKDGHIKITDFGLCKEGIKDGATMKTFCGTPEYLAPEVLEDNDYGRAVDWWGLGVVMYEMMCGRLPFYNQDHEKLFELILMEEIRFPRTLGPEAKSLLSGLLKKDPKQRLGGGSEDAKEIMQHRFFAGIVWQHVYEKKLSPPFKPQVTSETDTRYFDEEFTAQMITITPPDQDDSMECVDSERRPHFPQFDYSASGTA

T1 sequence (P31751 119-481 S474D limits assumed): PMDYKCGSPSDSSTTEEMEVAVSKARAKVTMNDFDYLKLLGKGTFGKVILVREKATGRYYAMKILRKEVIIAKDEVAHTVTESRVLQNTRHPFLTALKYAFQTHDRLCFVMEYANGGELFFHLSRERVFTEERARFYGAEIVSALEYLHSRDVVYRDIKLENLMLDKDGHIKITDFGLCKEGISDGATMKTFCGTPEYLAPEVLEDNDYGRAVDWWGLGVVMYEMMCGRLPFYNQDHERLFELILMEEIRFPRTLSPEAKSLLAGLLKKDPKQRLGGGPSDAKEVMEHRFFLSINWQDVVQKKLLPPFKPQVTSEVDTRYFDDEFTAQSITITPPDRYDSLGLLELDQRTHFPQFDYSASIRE

For `Cc1nn(-c2ccc(Cl)cc2)c2c1C(c1ccc(-c3ccccc3)cc1)C(C#N)=C(N)O2` (centres unmarked) [4j, 6-Amino-4-(biphenyl-4-yl)-1-(4-chlorophenyl)-3-methyl-1,4-dihydropyrano[2,3-c]pyrazole-5-carbonitrile], which IC50 [1] is on record?
Its IC50 is 12 µM.

What about the IC50 [2] of the same compound?
The IC50 was 14 µM.

Reference: PMC9683054, “Synthesis of N-(4-chlorophenyl) substituted pyrano[2,3-c]pyrazoles enabling PKBβ/AKT2 inhibitory and in vitro anti-glioma activity” (Annals of Medicine, 2022)
